Experimental data: US20230144869A1, “METHODS FOR TREATING CYTOKINE RELEASE SYNDROME” (UNIVERSITY HEALTH NETWORK, priority 2020, published 2023)

Key:
[1] = test system: CD4+ and CD8+ T-cells in peripheral blood mononuclear cells (PBMCs); experiment: T-cell activation in stimulated PBMCs (activation markers by flow cytometry); assay type: cell-based, human; details: PBMCs stimulated with anti-CD3 and anti-CD28 antibodies, PHA or SEB; 24 or 48 hours; FIG. 1A
[2] = test system: anti-CD3 antibody and anti-CD28 antibody-, PHA- or SEB-activated lymphocytes; experiment: Proliferation of activated lymphocytes in PBMCs (3H-thymidine); assay type: cell-based, human; details: PBMCs stimulated with anti-CD3 and anti-CD28 antibodies, 24 hours plus 18 hours labeling, FIG. 1B
Protocol: PBMCs (2×10^5 cells) were treated with either Compound 1 or DMSO, and anti-CD3 and anti-CD28 antibodies, PHA or SEB in RPMI 1640 medium containing 10% heat-inactivated FBS, 2-mercaptoethanol and penicillin-streptomycin antibiotics at 37° C., 5% CO2, and 100% humidity. After 24 hours, the cells were labeled with ^3H-thymidine for an additional 18 hours to measure lymphocyte proliferation by liquid scintillation counting. Proliferation of anti-CD3 antibody and anti-CD28 antibody-, PHA- or SEB-activated lymphocytes was inhibited by Compound 1 treatment, as shown in FIG. 1B. Similar data were obtained at 48 hours (data not shown). Data are representative of several independent experiments utilizing different PBMC samples, and are reported as the mean counts per minute (CPM)±standard deviation (SD) of duplicate wells.

[3] = test system: PBMCs (effector) with irradiated allogenic PBMCs (stimulator); experiment: Allogenic mixed lymphocyte reaction (MLR); assay type: cell-based, human; details: 4 days plus 18 hours labeling; FIG. 2A-2C
Protocol: The allogenic MLR is a cell proliferation assay where one population of lymphocytes (effector cells) is stimulated to proliferate by another genetically distinct population of lymphocytes (stimulator cells), which have been rendered non-proliferative. PBMCs [2×10^5 cells, effector (E) population] and irradiated (IR) allogenic PBMCs [1×10^5 cells, stimulator (S) population] were treated with either Compound 1 or DMSO in RPMI 1640 medium containing 10% heat-inactivated FBS, 2-mercaptoethanol and penicillin-streptomycin antibiotics at 37° C., 5% CO2, and 100% humidity. After 4 days, the cells were labeled with ^3H-thymidine for an additional 18 hours to measure lymphocyte proliferation by liquid scintillation counting. […] Multiple independent experiments utilizing different effector/stimulator pairs were conducted. Data are reported as the mean counts per minute (CPM)±standard deviation (SD) of triplicate wells.

[4] = test system: anti-CD3 antibody and anti-CD28 antibody-activated PBMCs; experiment: Cytokine secretion by anti-CD3 and anti-CD28 antibody-activated PBMCs (LEGENDplex Human Th Cytokine Panel); assay type: cell-based; details: culture supernatants after 24 hours; fold change relative to DMSO control; FIG. 3A
Protocol: PBMCs (2×10^5 cells) were treated with either Compound 1 or DMSO, and anti-CD3 and anti-CD28 antibodies in RPMI 1640 medium containing 10% heat-inactivated FBS, 2-mercaptoethanol and penicillin-streptomycin antibiotics at 37° C., 5% CO2, and 100% humidity. After 24 hours, cytokine levels in culture supernatants were determined by a LEGENDplex Human Th Cytokine Panel by manufacturer's instructions (BioLegend, Inc.).
In the presence of Compound 1, the level of all measured cytokines decreased, including IL-2, IL-6, IFNγ and TNFα. Data are representative of several independent experiments utilizing different human PBMC samples, and are reported as the fold change for Compound 1 relative to the DMSO control of duplicate wells.

[5] = test system: mouse primary cancer-associated fibroblasts (CAFs); experiment: TGFβ production by primary cancer-associated fibroblasts (CAFs); assay type: cell-based; details: after 3 days; fold change relative to DMSO control; FIG. 3B
Description: Cancer-associated fibroblasts (CAFs) are used as a model system to investigate TGFβ cytokine production. C57BL/6 mice were obtained from The Jackson Laboratory. The Institutional Animal Care and Use Committee of the University Health Network approved all animal procedures. CAFs were obtained from C57BL/6 mice by growing MC38-CEA mouse colon cancer xenografts subcutaneously in a conventional manner. When tumors reached a size of approximately 1000 mm^3 they were excised and disaggregated, and CAFs were isolated with a Tumor-Associated Fibroblast Isolation Kit (Miltenyi Biotec). Isolated CAFs were grown with a MesenCult Expansion Kit (STEMCELL Technologies, Inc.) at 37° C., 5% CO2, 3% O2, and 100% relative humidity. CAFs were seeded into a 96-well plate in DMEM medium containing 10% FBS 24 hours before treatment with either Compound 1 or DMSO. After 3 days, latent TGFβ was determined by a Mouse Latent TGFβ Legend Max kit by manufacturer's instructions (BioLegend, Inc.). Compound 1 inhibited TGFβ production by mouse primary CAFs. Data are representative of several independent experiments, and are reported as the fold change for Compound 1 relative to the DMSO control of duplicate wells.

[6] = test system: resting CD4+ and CD8+ T-cells; experiment: Viability of resting T-cells (annexin V / 7-AAD flow cytometry); assay type: cell-based, human; details: 48 hours; except at high concentrations (30 μM); FIG. 4
Protocol: (§1) CD3^+ T-cells and CD14^+ monocytes were purified from PBMCs using Human CD3 MicroBeads and Human CD14 MicroBeads, respectively (Miltenyi Biotech). Purified CD3^+ T-cells (2×10^5 cells) or CD14^+ monocytes (2×10^5 cells) were treated with either Compound 1 or DMSO in RPMI 1640 medium containing 10% heat-inactivated FBS, 2-mercaptoethanol and penicillin-streptomycin antibiotics at 37° C., 5% CO2, and 100% humidity. After 48 hours, the cells were stained with antibodies specific for the indicated cell subsets, and annexin V and 7-aminoactinomycin D (7-AAD) cell viability dyes for measurement by flow cytometry. […] Similar data were obtained at 24 and 72 hours (data not shown). Data are representative of several independent experiments utilizing different human PBMC samples, and are reported as the A decrease in percent viability of duplicate wells [mean±standard deviation (SD)].

resting CD14+ monocytes = experiment: Viability of resting monocytes (annexin V / 7-AAD flow cytometry); assay type: cell-based, human; details: 48 hours; FIG. 4
Protocol: as §1

unstimulated whole blood = experiment: Whole blood cytokine release assay (CRA); assay type: cell-based; details: whole blood diluted 4:1 with RPMI 1640, 4 hours; LEGENDplex Human Th Cytokine Panel
Protocol: The potential for cytokine release syndrome in patients treated with Compound 1 was evaluated using a whole blood cytokine release assay (CRA). Fresh whole blood from a healthy human donor was diluted 4:1 with RPMI 1640 medium and cultured for 4 hours in the presence of Compound 1 or DMSO. Lipopolysaccharide (LPS) (1 μg/mL) was used as a positive control. Cytokine levels in serum samples were determined by a LEGENDplex Human Th Cytokine Panel by manufacturer's instructions (BioLegend, Inc.). […] Data listed in Table 1 below are representative of several independent experiments, and are reported as the mean fold change for Compound 1 relative to the DMSO control of duplicate wells.

[7] = test system: C57BL/6 mice immunized with MOG35-55 peptide; experiment: Experimental autoimmune encephalomyelitis (EAE) model; assay type: in vivo, mouse; details: 50 mg/kg PO QD during EAE induction; FIG. 5

| Structure (SMILES) | CD4+ and CD8+ T-cell activation (cell surface expression of CD25 and CD69, shedding of CD62L) [1] | Lymphocyte proliferation (3H-thymidine, CPM) [2] | Lymphocyte proliferation in allogenic MLR (3H-thymidine, CPM) [3] | Level of all measured cytokines, including IL-2, IL-6, IFNγ and TNFα [4] | TGFβ production (latent TGFβ) [5] | Viability of resting CD4+ and CD8+ T-cells [6] | Viability of resting CD14+ monocytes (resting CD14+ monocytes) | Induction of cytokine levels predictive of cytokine release syndrome in vivo (unstimulated whole blood) | EAE disease progression (clinical score) [7] |
| --- | --- | --- | --- | --- | --- | --- | --- | --- | --- |
| CN1CCN(c2ccc3nc(-c4c(N)c5ccsc5[nH]c4=O)[nH]c3c2)CC1 [Compound 1] | titratable inhibition | inhibited | dose-dependent inhibition | decreased | inhibited | no significant effect | dose-dependent loss of viability | did not induce | – |
| CN1CCN(c2ccc3nc(-c4c(N)c5sccc5[nH]c4=O)[nH]c3c2)CC1 [Compound 2] | – | – | – | – | – | – | – | – | blocks EAE disease progression |
